US20240050463A1, “THERAPEUTIC COMPOSITIONS AND METHODS FOR TREATING HEPATITIS B” (ARBUTUS BIOPHARMA CORPORATION, priority 2016, published 2024)
Read-outs that look alike come from different tables or passages of the source.

Experiments:
[1] = tested on: HBV rcDNA in HepDE19 cells; assay: Inhibition of rcDNA in HepDE19 cells (bDNA assay), checkerboard, MacSynergy II; type: cell-based, HBV (human hepatoma cell line); parameters: key to ADDITIVE INHIBITION: % inhibition of rcDNA production; conditions: for ADDITIVE INHIBITION: GLS-4 0 μM; for inhibition at 0.000125 µM: ETV 0.125 nM alone
Experimental: In vitro combination studies were conducted using the method of Prichard and Shipman (Prichard M N, and Shipman C Jr., Antiviral Research, 1990, 14(4-5), 181-205; and Prichard M N, et. al., MacSynergy II). HepDE19 cell culture system is a HepG2 (human hepatocarcinoma) derived cell line that supports HBV DNA replication and cccDNA formation in a tetracycline (Tet)-regulated manner and produces HBV rcDNA and a detectable reporter molecule dependent on the production and maintenance of cccDNA (Guo et al 2007. J. Virol 81:12472-12484). HepDE19 (50,000 cells/well) were plated in 96 well collagen-coated tissue-culture treated microtiter plates in DMEM/F12 medium supplemented with 10% fetal bovine serum, 1% penicillin-streptomycin and 1 μg/ml tetracycline and incubated in a humidified incubator at 37° C. and 5% CO2 overnight. Next day, the cells were switched to fresh medium without tetracycline and incubated for 4 hrs at 37° C. and 5% CO2. […] The two inhibitors were tested both singly as well as in combinations in a checkerboard fashion such that each concentration of inhibitor A was combined with each concentration of inhibitor B to determine their combination effects on inhibition of rcDNA production. Following a 7 day-incubation of cells with compound combinations, the level of rcDNA present in the inhibitor-treated wells was measured using a Quantigene 2.0 bDNA assay kit (Affymetrix, Santa Clara, CA) with HBV specific custom probe set and manufacturers instructions. […] The RLU data from the single compound treated cells were analyzed using XL-Fit module in Microsoft Excel to determine EC50 values using a 4-parameter curve fitting algorithm. Concurrently, the effect of compounds on cell viability was assessed using replicate plates, plated at a density of 5,000 cells/well and incubated for 4 days, to determine the ATP content as a measure of cell viability using the cell-titer glo reagent (CTG; Promega Corporation, Madison, WI) as per manufacturer's instructions.
In vitro combination studies were conducted using the method of Prichard and Shipman (Prichard M N, Shipman C, Jr., Antiviral Res, 14, 181-205 (1990)). The HepDE19 cell line was developed as described in Guo et al. (Guo et al., J Virol, 81, 12472-12484 (2007)). It is a human hepatoma cell line stably transfected with the HBV genome, and which can express HBV pregenomic RNA and support HBV rcDNA (relaxed circular DNA) synthesis in a tetracycline-regulated manner. HepDE19 cells were plated in 96 well tissue-culture treated microtiter plates in DMEM/F12 medium supplemented with 10% fetal bovine serum+1% penicillin-streptomycin without tetracycline and incubated in a humidified incubator at 37° C. and 5% CO2 overnight. […] The two inhibitors were tested both singly as well as in combinations in a checkerboard fashion such that each concentration of inhibitor A was combined with each concentration of inhibitor B to determine their combination effects on inhibition of rcDNA production. Following a 48 hour-incubation, the level of rcDNA present in the inhibitor-treated wells was measured using a bDNA assay (Affymetrix) with HBV specific custom probe set and manufacturers instructions. […] Concurrently, the effect of inhibitor combinations on cell viability was assessed using replicate plates that were used to determine the ATP content as a measure of cell viability using the Cell-TiterGlo reagent (Promega) as per manufacturer's instructions.
In vitro combination studies were conducted using the method of Prichard and Shipman (1990) (Prichard M N, Shipman C, Jr. 1990. A three-dimensional model to analyze drug-drug interactions. Antiviral Res 14:181-205 AND Prichard M N. 1992. MacSynergy II, University of Michigan).

[2] = tested on: hepatitis B virus (HBV); assay: Serum HBV DNA in mouse model of HBV (pHBV1.3 hydrodynamic injection), quantitative PCR; type: in vivo, NOD.CB17-Prkdc^scid/J mice; conditions: mean ± SEM
Experimental: A mouse model of hepatitis B virus (HBV) was used to assess the anti-HBV effects of a small molecule inhibitor of HBV encapsidation (Compound 3) and HBV-targeting siRNAs, both as independent treatments and in combination with each other.
On Day −7, 10 micrograms of the plasmid pHBV1.3 (as per Guidotti, L., et al., Journal of Virology, 1995, 69(10): 6158-6169) was administered to NOD.CB17-Prkdc^scid/J mice via hydrodynamic injection (HDI; rapid 1.6 mL injection into the tail vein). […] As a readout of the anti-HBV effect of various treatments, serum HBV DNA concentration in mice was measured from total extracted DNA using a quantitative PCR assay (primer/probe sequences from Tanaka, Y., et al., Journal of Medical Virology, 2004, 72: 223-229).
Animals were treated with Compound 3 as follows: Starting on Day 0, a 50 mg/kg or 100 mg/kg dosage of Compound 3 was administered orally to animals on a twice-daily frequency for a total of fourteen doses between Days 0 and 7. Compound 3 was dissolved in a co-solvent formulation for administration. Negative control animals were administered either the co-solvent formulation alone, or saline. Animals were treated with lipid nanoparticle (LNP)-encapsulated HBV-targeting siRNAs as follows: On Day 0, an amount of test article equivalent to 0.1 mg/kg siRNA was administered intravenously.
The effect of these treatments was determined by collecting blood on Days 0 (pre-treatment), 4 & 7 and analyzing it for serum HBV DNA content.
Animals were treated with Compound 3 as follows: Starting on Day 0, a 100 mg/kg dosage of Compound 3 was administered orally to animals on a twice-daily frequency for a total of fourteen doses between Days 0 and 7. Compound 3 was dissolved in a co-solvent formulation for administration. Negative control animals were administered either the co-solvent formulation alone, or saline. Animals were treated with ETV as follows: Starting on Day 0, either a 100 ng/kg or a 300 ng/kg dosage of ETV was administered orally to animals on a once-daily frequency for a total of seven doses between Days 0 and 6. ETV was dissolved in DMSO to 2 mg/mL and then diluted in saline for administration.
The effect of these treatments was determined by collecting blood on Days 0 (pre-treatment), 4 & 7 and analyzing it for serum HBV DNA content. Samples with Ct values below the lower limit of quantitation (LLOQ) were set to one-half LLOQ for calculation of group means.

SMILES: CC[C@@H](C)NS(=O)(=O)c1ccc(F)c(C(=O)Nc2ccc(F)c(F)c2)c1 [Compound 3]
- ADDITIVE INHIBITION ([1]; Compound 3 0.040 μM): 11.14
- ADDITIVE INHIBITION ([1]; Compound 3 0.110 μM): 19.99
- ADDITIVE INHIBITION ([1]; Compound 3 0.330 μM): 56.68
- ADDITIVE INHIBITION ([1]; Compound 3 1.000 μM): 86.87
- Serum HBV DNA as percentage of individual pre-treatment baseline ([2]; Table 2, Day 0 (pre-treatment), Compound 3 50 mg/kg oral twice daily, alone or with HBV siRNA 0.1 mg/kg IV Day 0): 100 ± 0%
- Serum HBV DNA as percentage of individual pre-treatment baseline ([2]; Table 2, Day 0 (pre-treatment), Compound 3 100 mg/kg oral twice daily, alone or with HBV siRNA 0.1 mg/kg IV Day 0): 100 ± 0%
- Serum HBV DNA as percentage of individual pre-treatment baseline ([2]; Table 3, Day 0 (pre-treatment), Compound 3 100 mg/kg oral twice daily alone): 100 ± 0%

SMILES: C=C1[C@H](CO)[C@@H](O)C[C@@H]1n1cnc2c(=O)[nH]c(N)nc21 [ETV, Entecavir]
- inhibition at 15.63 pM ([1]; Hepatitis B virus, HepDE19, ETV 0.015625 nM alone, read-out: Additive inhibition (rcDNA)): -43.7%
- inhibition at 16 pM ([1]; Hepatitis B virus, HepDE19, ETV 0.016 nM alone): -43.7%
- inhibition at 31 pM ([1]; Hepatitis B virus, HepDE19, ETV 0.031 nM alone): -50.1%
- inhibition at 31.25 pM ([1]; Hepatitis B virus, HepDE19, ETV 0.03125 nM alone, read-out: Additive inhibition (rcDNA)): -50.1%
- inhibition at 62.5 pM ([1]; Hepatitis B virus, HepDE19, ETV 0.0625 nM alone, read-out: Additive inhibition (rcDNA)): -30.3%
- inhibition at 63 pM ([1]; Hepatitis B virus, HepDE19, ETV 0.063 nM alone): -30.3%
- inhibition at 0.000125 µM ([1]; Hepatitis B virus, HepDE19, read-out: Additive inhibition (rcDNA)): -23.5%
- inhibition at 0.000125 µM ([1]; Hepatitis B virus, HepDE19, read-out: Average % inhibition (rcDNA)): -23.5%
- inhibition at 0.00025 µM ([1]; Hepatitis B virus, HepDE19, ETV 0.25 nM alone, read-out: Additive inhibition (rcDNA)): -21.2%
- inhibition at 0.00025 µM ([1]; Hepatitis B virus, HepDE19, ETV 0.250 nM alone, read-out: Average % inhibition (rcDNA)): -21.2%
- inhibition at 0.0005 µM ([1]; Hepatitis B virus, HepDE19, ETV 0.5 nM alone, read-out: Additive inhibition (rcDNA)): -10.2%
- inhibition at 0.0005 µM ([1]; Hepatitis B virus, HepDE19, ETV 0.500 nM alone, read-out: Average % inhibition (rcDNA)): -10.2%
- inhibition at 0.001 µM ([1]; Hepatitis B virus, HepDE19, ETV 1 nM alone, read-out: Additive inhibition (rcDNA)): 41.7%
- inhibition at 0.001 µM ([1]; Hepatitis B virus, HepDE19, ETV 1.000 nM alone, read-out: Average % inhibition (rcDNA)): 41.7%
- inhibition at 0.002 µM ([1]; Hepatitis B virus, HepDE19, ETV 2 nM alone, read-out: Additive inhibition (rcDNA)): 58.4%
- inhibition at 0.002 µM ([1]; Hepatitis B virus, HepDE19, ETV 2.000 nM alone, read-out: Average % inhibition (rcDNA)): 58.4%
- inhibition at 0.004 µM ([1]; Hepatitis B virus, HepDE19, ETV 4 nM alone, read-out: Additive inhibition (rcDNA)): 70%
- inhibition at 0.004 µM ([1]; Hepatitis B virus, HepDE19, ETV 4.000 nM alone, read-out: Average % inhibition (rcDNA)): 70%
- Serum HBV DNA as percentage of individual pre-treatment baseline ([2]; Table 3, Day 0 (pre-treatment), ETV 100 ng/kg oral once daily, alone or with Compound 3 100 mg/kg oral twice daily): 100 ± 0%
- Serum HBV DNA as percentage of individual pre-treatment baseline ([2]; Table 3, Day 0 (pre-treatment), ETV 300 ng/kg oral once daily, alone or with Compound 3 100 mg/kg oral twice daily): 100 ± 0%
- Serum HBV DNA as percentage of individual pre-treatment baseline ([2]; Table 3, Day 4, ETV 100 ng/kg oral once daily, alone or with Compound 3 100 mg/kg oral twice daily): 21 ± 5%
- Serum HBV DNA as percentage of individual pre-treatment baseline ([2]; Table 3, Day 4, ETV 300 ng/kg oral once daily, alone or with Compound 3 100 mg/kg oral twice daily): 1.6 ± 0.3%
- Serum HBV DNA as percentage of individual pre-treatment baseline ([2]; Table 3, Day 7, ETV 100 ng/kg oral once daily, alone or with Compound 3 100 mg/kg oral twice daily): 3.5 ± 0.7%
- Serum HBV DNA as percentage of individual pre-treatment baseline ([2]; Table 3, Day 7, ETV 300 ng/kg oral once daily, alone or with Compound 3 100 mg/kg oral twice daily): 0.88 ± 0.31%
